# Results from article PMC7397056, “Design, Facile Synthesis and Characterization of Dichloro Substituted Chalcones and Dihydropyrazole Derivatives for Their Antifungal, Antitubercular and Antiproliferative Activities” (Molecules, 2020).
# Read-outs that look alike come from different tables or passages of the source.
# Legend:
# [1] = tested on: Aspergillus niger (ATCC-6275); assay: Antifungal activity, serial tube dilution method (MIC); settings: for MIC: Aspergillus niger; for Antifungal activity MIC, A. niger: serial tube dilution, 37 °C, 18 h, average of three
# [2] = tested on: prostate cancer cell lines (DU-145); assay: Antiproliferative activity, MTT assay; assay type: cell-based; settings: Homo sapiens, 48 h, mean ± SD (n = 3)
# Procedure: (§1) The antiproliferative activity of the compounds was determined their IC50 values. Methotrexate (Mtx; positive control) was used as a reference standard for comparing the antiproliferative activity of the target compounds. The MTT (3-(4,5-dimethylthiazol-2-yl)-2,5-diphenyl tetrazolium bromide) assay was based on the reduction of the soluble MTT (0.5 mg mL^−1, 100 µL) into a blue-purple formazan product, mainly by the activity of mitochondrial reductase enzymes inside the living cells. The prostate cancer cell lines, DU-145 cells, were cultured in Dulbecco’s Modified Eagle Medium (DMEM) media at 37 °C and humidified at 5% CO2. Stock solutions of the test compounds (17–46) were prepared in 0.1% DMSO followed by dilution with sterile water to obtain the desired final concentrations. Briefly, the cells were placed on 96-well plates at 100 µL total volume with the density of 1 × 10^4 cells per well and were allowed to adhere for 24 h. Then the medium was replaced with fresh media containing different dilutions of the test compounds and incubated for additional 48 h at 37 °C in DMEM with 10% fetal bovine serum (FBS) medium. Subsequently, the medium was replaced with 90 μL of fresh DMEM without FBS. The above wells were treated with 10 μL of MTT reagent (5 mg/mL of stock solution in DMEM without FBS) and incubated at 37 °C for 3–4 h. The formed blue formazan crystals were dissolved in 200 μL of DMSO. The optical density was determined at 570 nm using a micro plate reader. The assay was performed in triplicate for three independent experiments. The same experimentation was also done to confirm that the DMSO (negative control) had no effect in the study. The results had good reproducibility between replicate wells with standard errors below 10%. The antiproliferative activity results measured as IC50 values in µg/mL were converted and expressed in µM. Additionally, the cytotoxic activity of the compounds was also measured employing the same protocol discussed above to assess their toxicity on normal human cell lines (L02).
# [3] = Cytotoxic activity on normal cells, MTT assay; assay type: cell-based
# Procedure: as §1
# [4] = tested on: Mycobacterium tuberculosis H37Rv; assay: Antitubercular activity, broth dilution assay (MIC); assay type: cell-based; settings: for MIC: Middlebrook 7H9 broth, 37 °C, 21 days; for fold better activity than the standard pyrazinamide / fold less activity than pyrazinamide: ratio of MICs vs pyrazinamide (MIC 25.34 µM)
# [5] = tested on: Candida tropicalis (ATCC-1369); assay: Antifungal activity, serial tube dilution method (MIC); settings: for MIC: Candida tropicalis, ATCC1369, 18 h, read-out: Antifungal activity MIC, C. tropicalis, serial tube dilution, 37 °C, 18 h, average of three
# [6] = ATCC6275, 18 h, read-out: Antifungal activity MIC, A. niger, serial tube dilution, 37 °C, 18 h, average of three
# [7] = L02 cells (normal human cell line)
# [8] = Mycobacterium tuberculosis, H37RV, 504 h
# [9] = ATCC6275, read-out: Antifungal MIC, Aspergillus niger
Compound,"MIC [1, 6]",IC50 [2],"IC50 at 48 h [3, 7]","MIC [4, 8]",MIC [5],melting point,other results
Cc1ccc(/C=C/C(=O)c2ccc(Cl)c(Cl)c2)cc1 [Compound 2],110 µM,432 ± 2 µM,> 50 µg/mL,343 µM,110 µM,–,–
O=C(/C=C/c1ccc(F)cc1)c1ccc(Cl)c(Cl)c1 [Compound 3],54.2 µM,176 ± 2 µM,> 50 µg/mL,84.7 µM,54.2 µM,–,–
O=C(/C=C/c1ccccc1F)c1ccc(Cl)c(Cl)c1 [Compound 4],27.1 µM,393 ± 2 µM,> 50 µg/mL,84.7 µM,54.2 µM,–,–
O=C(/C=C/c1ccc(Cl)cc1)c1ccc(Cl)c(Cl)c1 [Compound 5],25.7 µM,147 ± 2 µM,> 50 µg/mL,80.2 µM,51.3 µM,–,–
O=C(/C=C/c1ccccc1Cl)c1ccc(Cl)c(Cl)c1 [Compound 6],25.7 µM,141 ± 2 µM,> 50 µg/mL,20.1 µM,51.3 µM,–,–
"O=C(/C=C/c1ccc(F)cc1F)c1ccc(Cl)c(Cl)c1 [Compound 7, (E)-1-(3,4-dichlorophenyl)-3-(2,4-difluorophenyl)prop-2-en-1-one]",25.5 µM,31 ± 2 µM,> 50 µg/mL,9.96 µM,51.1 µM,265 °C,–
"O=C(/C=C/c1ccc(Cl)cc1Cl)c1ccc(Cl)c(Cl)c1 [Compound 8, (E)-1-(3,4-dichlorophenyl)-3-(2,4-dichlorophenyl)prop-2-en-1-one]",23.1 µM,254 ± 2 µM,> 50 µg/mL,18.1 µM,46.2 µM,299 °C,–
"O=C(/C=C/c1ccc(C(F)(F)F)cc1)c1ccc(Cl)c(Cl)c1 [Compound 9, (E)-1-(3,4-dichlorophenyl)-3-(4-trifluoromethylphenyl)prop-2-en-1-one]",11.6 µM,292 ± 1 µM,> 50 µg/mL,9.03 µM,11.6 µM,169 °C,fold improvement in antitubercular activity vs. compound 2 ([4]; comparator compound 2 (MIC 343.44 µM)): approximately 40 fold; fold better activity than the standard pyrazinamide [4]: 2.8 fold
O=C(/C=C/c1ccc2c(c1)OCO2)c1ccc(Cl)c(Cl)c1 [Compound 10],23 µM,138 ± 2 µM,> 50 µg/mL,72.2 µM,180 µM,–,"Antifungal activity MIC, A. niger [1]: 23.11 µM; Antifungal activity MIC, C. tropicalis ([5]; serial tube dilution, 37 °C, 18 h, average of three): 180.62 µM"
"O=C(/C=C/c1ccccn1)c1ccc(Cl)c(Cl)c1 [Compound 11, (E)-1-(3,4-dichlorophenyl)-3-(pyridin-2-yl)prop-2-en-1-one]",28.9 µM,353 ± 2 µM,> 50 µg/mL,45.1 µM,28.9 µM,156 °C,–
"O=C(/C=C/c1cccnc1)c1ccc(Cl)c(Cl)c1 [Compound 12, (E)-1-(3,4-dichlorophenyl)-3-(pyridin-3-yl)prop-2-en-1-one]",28.9 µM,256 ± 2 µM,> 50 µg/mL,22.6 µM,14.4 µM,191 °C,–
O=C(/C=C/c1ccncc1)c1ccc(Cl)c(Cl)c1 [Compound 13],57.8 µM,209 ± 2 µM,> 50 µg/mL,45.1 µM,113 µM,–,–
"O=C(/C=C/c1ccco1)c1ccc(Cl)c(Cl)c1 [Compound 14, (E)-1-(3,4-dichlorophenyl)-3-(furan-2-yl)prop-2-en-1-one]",235 µM,206 ± 2 µM,> 50 µg/mL,47 µM,117 µM,172 °C,–
"O=C(/C=C/c1ccc[nH]1)c1ccc(Cl)c(Cl)c1 [Compound 15, (E)-1-(3,4-dichlorophenyl)-3-(1H-pyrrol-2-yl)prop-2-en-1-one]",60.4 µM,94 ± 2 µM,> 50 µg/mL,47.2 µM,60.4 µM,238 °C,–
"O=C(/C=C/c1cccs1)c1ccc(Cl)c(Cl)c1 [Compound 16, (E)-1-(3,4-dichlorophenyl)-3-(thiophen-2-yl)prop-2-en-1-one]",14.1 µM,17 ± 1 µM,–,22.1 µM,14.1 µM,194 °C,"fold better activity in comparison to fluconazole, Aspergillus niger [1]: 1.84 fold; IC50 at 48 h ([3]; normal human cell line L02): > 50 µg/mL; fold better activity in comparison to fluconazole, Candida tropicalis [5]: 1.35 fold"
"Cc1ccc(C2CC(c3ccc(Cl)c(Cl)c3)=NN2c2ccccc2)cc1 (centres unmarked) [Compound 17, 3-(3,4-dichlorophenyl)-1-phenyl-5-(p-tolyl)-4,5-dihydro-1H-pyrazole]",42 µM,351 ± 2 µM,> 75 µg/mL,262 µM,42 µM,168 °C,–
"Fc1ccc(C2CC(c3ccc(Cl)c(Cl)c3)=NN2c2ccccc2)cc1 (centres unmarked) [Compound 18, 3-(3,4-dichlorophenyl)-1-phenyl-5-(4-fluorophenyl)-4,5-dihydro-1H-pyrazole]",28.8 µM,119 ± 2 µM,> 75 µg/mL,–,41.5 µM,195 °C,"MIC [1, 9]: 20.8 µg/mL; Antifungal activity MIC, A. niger [1]: 20.76 µM; MIC [4]: 32.44 µM; fold less activity than pyrazinamide [4]: 1.2 fold"
"Fc1ccccc1C1CC(c2ccc(Cl)c(Cl)c2)=NN1c1ccccc1 (centres unmarked) [Compound 19, 3-(3,4-dichlorophenyl)-1-phenyl-5-(2-fluorophenyl)-4,5-dihydro-1H-pyrazole]",20.8 µM,327 ± 2 µM,> 75 µg/mL,–,41.5 µM,149 °C,"MIC [1, 9]: 20.8 µg/mL; MIC [4]: 32.44 µM; fold less activity than pyrazinamide [4]: 1.2 fold"
"Clc1ccc(C2CC(c3ccc(Cl)c(Cl)c3)=NN2c2ccccc2)cc1 (centres unmarked) [Compound 20, 3-(3,4-dichlorophenyl)-1-phenyl-5-(4-chlorophenyl)-4,5-dihydro-1H-pyrazole]",28.8 µM,149 ± 2 µM,> 75 µg/mL,–,39.8 µM,261 °C,"Antifungal activity MIC, A. niger [1]: 19.91 µM; MIC [4]: 31.11 µM; fold less activity than pyrazinamide [4]: 1.2 fold"
"Clc1ccc(C2=NN(c3ccccc3)C(c3ccccc3Cl)C2)cc1Cl (centres unmarked) [Compound 21, 3-(3,4-dichlorophenyl)-1-phenyl-5-(2-chlorophenyl)-4,5-dihydro-1H-pyrazole]",19.9 µM,134 ± 2 µM,> 75 µg/mL,15.6 to 32.4 µM,39.8 µM,133 °C,"MIC [1, 9]: 19.9 µg/mL; MIC [4]: 15.55 µM; fold better activity than the standard pyrazinamide [4]: 1.6 fold"
"Fc1ccc(C2CC(c3ccc(Cl)c(Cl)c3)=NN2c2ccccc2)c(F)c1 (centres unmarked) [Compound 22, 3-(3,4-dichlorophenyl)-1-phenyl-5-(2,4-difluorophenyl)-4,5-dihydro-1H-pyrazole]",19.8 µM,262 ± 2 µM,> 75 µg/mL,3.96 µM,19.8 µM,291 °C,–
"Clc1ccc(C2CC(c3ccc(Cl)c(Cl)c3)=NN2c2ccccc2)c(Cl)c1 (centres unmarked) [Compound 23, 3-(3,4-dichlorophenyl)-1-phenyl-5-(2,4-dichlorophenyl)-4,5-dihydro-1H-pyrazole]",18.3 µM,206 ± 2 µM,> 75 µg/mL,7.15 µM,36.7 µM,302 °C,fold improvement in antitubercular activity compared to compound 20 ([4]; comparator compound 20): 4 fold; fold improvement in antitubercular activity compared to compound 21 ([4]; comparator compound 21): 2 fold
"OC(Cn1cncn1)(Cn1cncn1)c1ccc(F)cc1F [Fluconazole, reference compound]",26.1 µM,–,–,–,19.6 µM,–,–
"NC(=O)c1cnccn1 [Pyrazinamide, reference compound]",–,–,–,25.3 µM,–,–,–
